Consider one molecule from PMC2362735, “New semisynthetic vinca alkaloids: chemical, biochemical and cellular studies” (British Journal of Cancer, 1999).

The structures appear in SMILES notation. Read-outs that look alike come from different tables or passages of the source.

The test system of assay [1] is Human neuroblastoma cell line (SH-SY5Y). Nature of the assay: Microculture tetrazolium assay (MTA), cytotoxicity. As to conditions: Homo sapiens, 96 h. The source says:
(§1) The numerous antimitotic drugs already developed and therapeu- tically used for a large number of pathologies belong to different classes based on their chemical structure and other distinctive features. Antimitotic drugs usually target the tubulin/microtubule network of the cytoskeleton that is formed by assembly of cyto- plasmic tubulin dimers. The stability of the different microtubular structures varies considerably; some of their functions depend on their lability. The lability is augmented by the extreme sensitivity to various drugs. Several synthetic and natural compounds interact specifically with tubulin and/or microtubule, fundamentally destroying its dynamic character and leading to cell death. […] Because of their extensive clinical use, it is important to synthesize additional agents having at least the same biological activity. […] Nevertheless, it is unclear yet how the anti-calmodulin activity of these drugs is related to their desired and undesired pharmacological effects. […] The synthesis of the KAR derivatives are presented. […] Taxol, GTP and trifluoperazine were purchased from Sigma. All organic reagents for synthesis of the new compounds were obtained from Aldrich and were of the highest grade. All other chemicals were reagent grade commercial preparations. […] Tubulin was stored in 1 M sucrose, 10 mM sodium phosphate buffer, 0.5 mM magnesium chloride and 0.1 mM GTP, pH 7.0, at -80C and dialysed against the appropriate buffer before use. […] PFK, aldolase and glycerol-3-phosphate dehydrogenase- triosephosphate isomerase purified from rabbit skeletal muscle were purchased in ammonium sulphate suspensions from Sigma or Boehringer. The enzyme suspensions were centrifuged at 10 000g for 5 min. The pellets were suspended in the appropriate buffer, then the enzymes were gel filtered or dialysed in the same buffer to remove ammonium sulphate. […] (Figure 1B; R1 , CH3; R2 , CH2 CH2 Cl). […] After 2 h incubation at room temperature, 200 ml dried toluene was added to the reaction mixture. […] The mixture was stirred for 30 min. After separation of the organic phase, it was washed with water (3 x 30 ml) and dried with potassium sulphate and evaporated on a water bath of 35-40C at 20-27 hPa. The resulting material was chromatographed on silica gel (500 g, bead size of 0.040- 0.063 mm) column (30 mm x 500 mm) using ethyl acetate/ethanol (9:1) mixture as eluent. […] The mixture was kept for 4 h at room temperature and then evaporated on a water bath at 40C under a vacuum of 80 hPa to a final volume of 5-6 ml. […] (Figure 1B, R1 , CHO; R2 , CH2 CH2 Cl). […] Synthesis of KAR-4 [3-allyl-2,4-dioxo-3,5-spiro-oxazolidino- 4-deacetoxy-vinblastine] (Figure 1B; R1 , CH3; R2 , CH2 CH=CH2 ). […] NMR measurements were carried out on a Varian Unity plus-500 instrument (500 MHz for 1H and 125 MHz for 13C) in DMSO. Chemical shifts were determined relative to dTMS = 0.00 p.p.m. 1H and 13C signal assignments were verified by a concerted use of two-dimensional 1H-1H and 1H-13C shift correlation methods (DQFCOSY, HSQC, HMBC) and NOESY experiments. The gradient-enhanced DQFCOSY, HSQC, HMBC and NOESY experiments were recorded by using the standard spectrometer software package. A mixing time of tmix = 0.5 s was used for the NOESY experiments.

The next assay concerns tubulin. Nature of the assay: Taxol-induced tubulin polymerization, turbidity at 350 nm. The format is biochemical, calf. As to conditions: taxol-induced assembly, MES buffer pH 6.8, 37C; average of three independent measurements; read-out: Anti-tubulin effect, turbidity at 350 nm, IC50.
Source text: as §1

In assay [2] the test system is tubulin/microtubule, PFK-bundled microtubules. Nature of the assay: Tubulin polymerization with or without PFK (bundled vs single microtubules): turbidity and pelleting with SDS-PAGE. The format is biochemical, calf. As to conditions: 10 M tubulin, 2 M drug, 20 µM taxol, SDS-PAGE of supernatant and pellet. The source says:
The numerous antimitotic drugs already developed and therapeu- tically used for a large number of pathologies belong to different classes based on their chemical structure and other distinctive features. Antimitotic drugs usually target the tubulin/microtubule network of the cytoskeleton that is formed by assembly of cyto- plasmic tubulin dimers. The stability of the different microtubular structures varies considerably; some of their functions depend on their lability. The lability is augmented by the extreme sensitivity to various drugs. Several synthetic and natural compounds interact specifically with tubulin and/or microtubule, fundamentally destroying its dynamic character and leading to cell death. […] Because of their extensive clinical use, it is important to synthesize additional agents having at least the same biological activity. […] Nevertheless, it is unclear yet how the anti-calmodulin activity of these drugs is related to their desired and undesired pharmacological effects. […] The synthesis of the KAR derivatives are presented. […] Taxol, GTP and trifluoperazine were purchased from Sigma. All organic reagents for synthesis of the new compounds were obtained from Aldrich and were of the highest grade. All other chemicals were reagent grade commercial preparations. […] Tubulin was stored in 1 M sucrose, 10 mM sodium phosphate buffer, 0.5 mM magnesium chloride and 0.1 mM GTP, pH 7.0, at -80C and dialysed against the appropriate buffer before use. […] PFK, aldolase and glycerol-3-phosphate dehydrogenase- triosephosphate isomerase purified from rabbit skeletal muscle were purchased in ammonium sulphate suspensions from Sigma or Boehringer. The enzyme suspensions were centrifuged at 10 000g for 5 min. The pellets were suspended in the appropriate buffer, then the enzymes were gel filtered or dialysed in the same buffer to remove ammonium sulphate. […] (Figure 1B; R1 , CH3; R2 , CH2 CH2 Cl). […] After 2 h incubation at room temperature, 200 ml dried toluene was added to the reaction mixture. […] The mixture was stirred for 30 min. After separation of the organic phase, it was washed with water (3 x 30 ml) and dried with potassium sulphate and evaporated on a water bath of 35-40C at 20-27 hPa. The resulting material was chromatographed on silica gel (500 g, bead size of 0.040- 0.063 mm) column (30 mm x 500 mm) using ethyl acetate/ethanol (9:1) mixture as eluent. […] The mixture was kept for 4 h at room temperature and then evaporated on a water bath at 40C under a vacuum of 80 hPa to a final volume of 5-6 ml. […] (Figure 1B, R1 , CHO; R2 , CH2 CH2 Cl). […] Synthesis of KAR-4 [3-allyl-2,4-dioxo-3,5-spiro-oxazolidino- 4-deacetoxy-vinblastine] (Figure 1B; R1 , CH3; R2 , CH2 CH=CH2 ). […] NMR measurements were carried out on a Varian Unity plus-500 instrument (500 MHz for 1H and 125 MHz for 13C) in DMSO. Chemical shifts were determined relative to dTMS = 0.00 p.p.m. 1H and 13C signal assignments were verified by a concerted use of two-dimensional 1H-1H and 1H-13C shift correlation methods (DQFCOSY, HSQC, HMBC) and NOESY experiments. The gradient-enhanced DQFCOSY, HSQC, HMBC and NOESY experiments were recorded by using the standard spectrometer software package. A mixing time of tmix = 0.5 s was used for the NOESY experiments. […] Mass spectrum was recorded on a Kratos MS 80 instrument using FAB.

For a further assay, the target named is T1, calmodulin (Bos taurus, UniProt P62157).
T1 construct: Calmodulin from bovine brain was purified to homogeneity using Phenyl-Sepharose (Pharmacia) chromatography; from tissue; host or cells: bovine brain
More on the design: method as in Molnar et al (1995). As to conditions: ref Molnar et al (1995); cited from earlier work.

The next assay deals with mouse leukaemia P388. The arrangement: method as in Orosz et al, 1997a. Particulars: P388, 0.2 mg kg-1, eightfold treatment; ref Orosz et al, 1997a; cited from earlier work.

For the molecule `CC[C@]1(O)C[C@@H]2CN(CCc3c([nH]c4ccccc34)[C@@](C(=O)OC)(c3cc4c(cc3OC)N(C)[C@H]3[C@@](O)(C(=O)OC)[C@H](OC(C)=O)[C@]5(CC)C=CCN6CC[C@]43[C@@H]65)C2)C1` [Vinblastine, vinblastine, reference compound], the IC50 amounted to 5e-09 M in assay [1] (read-out: Cytotoxicity MTA IC50), 5e-09 M in assay [1] (read-out: Cytotoxicity MTA IC50 (M)) and […] in the assay on tubulin. The “tubulin partition in pelleting experiment, without PFK” value in assay [2] (no PFK) is “practically all tubulin appears in the super- natants”. Moreover, the “tubulin partition in pelleting experiment, with PFK (bundled microtubules)” value in assay [2] (2 M PFK) is recorded as “significant amount of tubulins were assembled into microtubules”. Further, at calmodulin, the “Anti-calmodulin activity: Efficiency (%)” value was 61%. Further, in the assay on mouse leukaemia P388, the T/C is listed as 199%.
